Data taken from PubChem BioAssay (NCI).
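Following 48 hours of exposure in 96-well plates, responses at five concentrations were used to interpolate endpoints linearly. GI50 is the concentration that inhibits growth by half. The concentration for full growth arrest is given as TGI.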

Assays:
Test in all cases: inhibition of tumour cell growth, NCI panel, 48 h
[1] = system: RPMI-8226 leukemia
[2] = system: TK-10 renal
[3] = system: MALME-3M melanoma
[4] = system: OVCAR-4 ovarian
[5] = system: UACC-62 melanoma
[6] = system: U251 CNS
[7] = system: SNB-19 CNS
[8] = system: IGROV1 ovarian
[9] = system: SW-620 colon
[10] = system: SN12C renal

In the case of `COC(=O)c1ccccc1NC(=S)NN(C)C`, the TGI [1] was > 100 µM, the TGI [2] was > 100 µM and the TGI [3] was > 100 µM. The TGI [4] was > 100 µM, the TGI [5] was > 100 µM and the TGI [6] was > 100 µM. For the same compound, the TGI [7] was > 100 µM, the TGI [8] was > 100 µM and the TGI [9] was > 100 µM.

For `C=CC(C)(C)C1(CC(OC)OC)C(=O)N(C)c2ccccc21` (stereo unspecified), the TGI [1] was > 25 µM, the TGI [4] was > 25 µM and the TGI [5] was > 25 µM. The TGI [6] was > 25 µM, the TGI [7] was > 25 µM and the TGI [9] was > 25 µM. For the same compound, the TGI [10] was > 25 µM.

For `Cn1cc(-c2nc(-c3c[nH]c4ccncc34)cs2)c2ccccc21`, the GI50 [2] was 1.97 µM, the TGI [2] was 3.46 µM and the GI50 [3] was 1.69 µM. It also gave a TGI [3] of 3.23 µM, a GI50 [5] of 1.69 µM and a TGI [5] of 3.11 µM. For the same compound, the GI50 [10] was 1.76 µM and the TGI [10] was 3.27 µM.

For `CCCCOc1c(C(=O)O)cc(Br)cc1C(=O)O`, the TGI [1] was > 100 µM, the TGI [2] was > 100 µM and the TGI [3] was > 100 µM. For the same compound, the TGI [4] was > 100 µM, the TGI [6] was > 100 µM and the TGI [7] was > 100 µM. The TGI [8] was > 100 µM, the TGI [9] was > 100 µM and the TGI [10] was > 100 µM.

In the case of `Cc1nc(N)sc1C(=O)Nc1ncn[nH]1`, the TGI [1] was > 100 µM, the TGI [2] was > 100 µM and the TGI [4] was > 100 µM. For the same compound, the TGI [5] was > 100 µM, the TGI [6] was > 100 µM and the TGI [7] was > 100 µM. The TGI [8] was > 100 µM, the TGI [9] was > 100 µM and the TGI [10] was > 100 µM.

For `N=S(=O)(c1ccccc1)c1ccccc1`, the TGI [1] was > 100 µM, the TGI [3] was > 100 µM and the TGI [4] was > 100 µM. The TGI [5] was > 100 µM, the TGI [6] was > 100 µM and the TGI [7] was > 100 µM. For the same compound, the TGI [8] was > 100 µM, the TGI [9] was > 100 µM and the TGI [10] was > 100 µM.

`CCCCCCCCCCCCCCCCNCC(O)CN` (stereo unspecified) gave a TGI [1] of 4.52 µM, a TGI [3] of 30.2 µM and a TGI [4] of 12.1 µM. The TGI [5] was 17 µM, the TGI [6] was 6.26 µM and the TGI [7] was 36 µM. For the same compound, the TGI [8] was 18.9 µM, the TGI [9] was 3.17 µM and the TGI [10] was 12.9 µM.

In the case of `Nc1ncnc2c1ncn2CCCC(c1ccccc1)P(=O)(O)O` (stereo unspecified), the TGI [2] was > 100 µM, the TGI [3] was > 100 µM and the TGI [5] was > 100 µM. For the same compound, the TGI [6] was > 100 µM, the TGI [7] was > 100 µM and the TGI [8] was > 100 µM. The TGI [9] was > 100 µM and the TGI [10] was > 100 µM.

With `N#C/C(=C/n1c(=S)[nH]c2ccccc21)C(N)=O` the TGI [1] was > 100 µM, the TGI [3] was > 100 µM and the TGI [4] was > 100 µM. For the same compound, the TGI [5] was > 100 µM, the TGI [6] was > 100 µM and the TGI [7] was > 100 µM. The TGI [8] was > 100 µM, the TGI [9] was > 100 µM and the TGI [10] was > 100 µM.

With `CC(C)NCC(O)c1ccc(O)c2ncccc12` (stereo unspecified) the TGI [1] was > 100 µM, the TGI [2] was > 100 µM and the TGI [4] was > 100 µM. The TGI [5] was > 100 µM, the TGI [6] was > 100 µM and the TGI [7] was > 100 µM. For the same compound, the TGI [8] was > 100 µM, the TGI [9] was > 100 µM and the TGI [10] was > 100 µM.

`COC(=O)[C@H]1[C@@H](O)[C@@]2(O)c3c(OC)cc(OC)cc3O[C@@]2(c2ccc3c(c2)OCO3)[C@@H]1c1ccccc1` was tested, and the TGI [1] was 0.0492 µM, the TGI [3] was 9.69 µM and the TGI [4] was > 10.1 µM. For the same compound, the TGI [5] was > 50 µM, the TGI [6] was > 50 µM and the TGI [7] was 0.00512 µM. The TGI [8] was 0.666 µM, the TGI [9] was > 22.2 µM and the TGI [10] was 1.46 µM.

For `COC(=O)[C@@H]1[C@H](O)CCC2=C(CC(=O)c3ccoc3)[C@H](C)CC[C@]21C`, the TGI [2] was > 50 µM, the TGI [3] was > 50 µM and the TGI [4] was > 50 µM. For the same compound, the TGI [5] was > 50 µM, the TGI [6] was > 50 µM and the TGI [7] was > 50 µM. The TGI [8] was > 50 µM, the TGI [9] was > 50 µM and the TGI [10] was > 50 µM.

For `CSc1c2c(C)n[nH]c2nn1-c1ccccc1`, the TGI [1] was > 100 µM, the TGI [2] was > 100 µM and the TGI [3] was > 100 µM. The TGI [4] was > 100 µM, the TGI [5] was > 100 µM and the TGI [6] was > 100 µM. The TGI [7] was > 100 µM, the TGI [9] was > 100 µM and the TGI [10] was > 100 µM.

`CCCc1n[nH]c(=O)n1N1C(=O)C=CC1=O` was tested, and the TGI [2] was > 100 µM, the TGI [3] was > 100 µM and the TGI [4] was > 100 µM. For the same compound, the TGI [5] was > 100 µM, the TGI [6] was > 100 µM and the TGI [8] was > 100 µM. The TGI [10] was > 100 µM.

For `COc1cc(OCc2nc3cc(C(F)(F)F)ccc3nc2-c2ccccc2)cc(OC)c1OC`, the TGI [1] was > 100 µM, the TGI [2] was > 100 µM and the TGI [3] was > 100 µM. For the same compound, the TGI [4] was > 100 µM, the TGI [5] was > 100 µM and the TGI [6] was > 100 µM. The TGI [7] was > 100 µM, the TGI [8] was > 100 µM and the TGI [9] was > 100 µM.

Work on `CCNC(=O)NNc1ncnc2c1c(-c1ccc(Cl)cc1)cn2-c1ccc(C)cc1` yielded a TGI [2] of 81 µM, a TGI [3] of 35.5 µM and a TGI [4] of 40.8 µM. The TGI [5] was 33.3 µM, the TGI [6] was 31.3 µM and the TGI [7] was 34.5 µM. The TGI [8] was 37.7 µM, the TGI [9] was 45 µM and the TGI [10] was 30.3 µM.

`Fc1ccc2[nH]cc(-c3nc(-c4c[nH]c5ccncc45)cs3)c2c1` showed a GI50 [2] of 2.3 µM, a TGI [2] of 3.91 µM and a GI50 [5] of 1.72 µM. For the same compound, the TGI [5] was 3.2 µM, the GI50 [10] was 1.52 µM and the TGI [10] was 2.92 µM.

`N/C(=N\NC(=O)c1nc2ccccc2s1)c1ccccn1` was tested, and the TGI [1] was 26.8 µM, the TGI [2] was > 100 µM and the TGI [3] was > 100 µM. The TGI [5] was 19.5 µM, the TGI [6] was > 60.9 µM and the TGI [7] was > 100 µM. For the same compound, the TGI [8] was > 100 µM, the TGI [9] was > 100 µM and the TGI [10] was 18 µM.

Compound `C=CCNc1nc(O)c(/C=C2\C=Nc3ncccc32)s1` has a GI50 [1] of 2.26 µM, a TGI [1] of 6.71 µM and a GI50 [2] of 2.18 µM. For the same compound, the TGI [2] was 16.8 µM, the GI50 [4] was 3.03 µM and the TGI [4] was 24.9 µM. The GI50 [5] was 1.69 µM, the TGI [5] was 4.22 µM and the GI50 [6] was 2.07 µM. The TGI [6] was 4.35 µM, the GI50 [7] was 2.32 µM and the TGI [7] was 7.29 µM. The GI50 [8] was 2.86 µM, the TGI [8] was > 100 µM and the GI50 [9] was 2.13 µM. The TGI [9] was 9.25 µM, the GI50 [10] was 2.1 µM and the TGI [10] was 5.52 µM.

`CC(C)(C)c1ccc(O)c(C(c2ccc([N+](=O)[O-])cc2)c2cc(C(C)(C)C)ccc2O)c1` was tested, and the TGI [1] was 4.98 µM, the TGI [2] was 7.39 µM and the TGI [4] was 3.91 µM. For the same compound, the TGI [5] was 3.2 µM, the TGI [6] was 4.81 µM and the TGI [7] was 5.36 µM. The TGI [8] was 4.37 µM, the TGI [9] was 4.71 µM and the TGI [10] was 4.02 µM.

`Clc1ccc2nc3n[nH]c(Cl)c3nc2c1` was tested, and the TGI [1] was > 100 µM, the TGI [2] was > 100 µM and the TGI [4] was > 100 µM. For the same compound, the TGI [5] was > 100 µM, the TGI [6] was > 100 µM and the TGI [7] was > 100 µM. The TGI [9] was > 100 µM and the TGI [10] was > 100 µM.

With `C[N+](C)(C)CCOC(=O)/C=C/c1cnc[nH]1` the TGI [1] was > 500 µM, the TGI [3] was > 500 µM and the TGI [4] was > 500 µM. For the same compound, the TGI [5] was > 500 µM, the TGI [6] was > 500 µM and the TGI [7] was > 500 µM. For the same compound, the TGI [8] was > 500 µM, the TGI [9] was > 500 µM and the TGI [10] was > 500 µM.

`CC(C(=O)NCCNC(=O)CCC(=O)N(C)O)C(=O)NCCNC(=O)CCC(=O)N(C)O` was tested, and the TGI [1] was > 100 µM, the TGI [2] was > 100 µM and the TGI [3] was > 100 µM. The TGI [4] was > 100 µM, the TGI [5] was > 100 µM and the TGI [6] was > 100 µM. The TGI [7] was > 100 µM, the TGI [8] was > 100 µM and the TGI [9] was > 100 µM.
